From PMC8019628, “Acetylcholinesterase Inhibitory and Antioxidant Activity of the Compounds Isolated from Vanda roxburghii” (Advances in Pharmacological and Pharmaceutical Sciences, 2021)
Converted amounts (≈) assume the structure as drawn.

Tested on: not listed separately
Test: Reducing power assay (Fe+3-ferricyanide reduction)
Details: 80 μg/ml
Procedure: The reducing power of the compounds was determined by the method of Oyaizu. The compound (1 ml) was added to a mixture of 0.2 M potassium buffer (2.5 ml) and 1% potassium ferricyanide (2.5 ml) and incubated at 50°C for 20 minutes. Then, 10% TCA solution (2.5 ml) was added to the reaction mixture and centrifuged (3000 rpm) for 10 minutes. Finally, 2.5 ml of solution was mixed with 2.5 ml of double distilled water and 0.5 ml of 0.1% ferric chloride solution. The absorbance of the reaction mixture was recorded at 700 nm. A standard antioxidant catechin was used for comparison.

Row | Structure (SMILES) | Reducing power, absorbance
1 | COc1cc(CCCOC(=O)CCc2ccc(O)cc2)ccc1O [Compound 4, dihydroconiferyl dihydro-p-coumarate] | 0.894 ± 0.014
2 | COc1cc(C=O)cc(OC)c1O [Compound 2, syringaldehyde] | 0.667 ± 0.035
3 | COc1cc(O)cc(CCc2ccc(O)c(OC)c2)c1 [Compound 5, gigantol] | 1.865 ± 0.030
4 | COc1cc(C=O)ccc1O [Compound 3, vanillin] | 0.746 ± 0.005

Same assay, conditions: 100 μg/ml, 700 nm (as stated in Figure 4 legend), mean ± SD (n = 3)

Row | Structure (SMILES) | Reducing power, absorbance
5 | O.Oc1cc(O)c2c(c1)O[C@H](c1ccc(O)c(O)c1)[C@@H](O)C2 [Catechin, reference compound] | 1.964 ± 0.019
6 | COc1cc(CCCOC(=O)CCc2ccc(O)cc2)ccc1O [Compound 4, dihydroconiferyl dihydro-p-coumarate] | 0.894 ± 0.014
7 | COc1cc(C=O)cc(OC)c1O [Compound 2, syringaldehyde] | 0.667 ± 0.035
8 | CCCCC/C=C\C/C=C\CCCCCCCC(=O)OC [Compound 1, methyl linoleate] | no activity
9 | COc1cc(O)cc(CCc2ccc(O)c(OC)c2)c1 [Compound 5, gigantol] | 1.865 ± 0.030
10 | COc1cc(C=O)ccc1O [Compound 3, vanillin] | 0.746 ± 0.005

Tested on: not listed separately
Test: Total antioxidant capacity (reduction of Mo (VI) to Mo (V))
Details: 80 μg/ml, 695 nm, mean ± SD (n = 3)
Procedure: The antioxidant capacity of the compounds was assessed by the method as described earlier. The compound was added to a mixture of sulphuric acid (0.6 M), sodium phosphate (28 mM), and ammonium molybdate (4 mM) and heated in a water bath at 95°C for 90 min. After cooling to room temperature, the absorbance of the mixture was recorded at 695 nm against blank. A standard antioxidant catechin was used for comparison.

Row | Structure (SMILES) | Total antioxidant activity, absorbance
11 | O.Oc1cc(O)c2c(c1)O[C@H](c1ccc(O)c(O)c1)[C@@H](O)C2 [Catechin, reference compound] | 1.739 ± 0.049
12 | COc1cc(CCCOC(=O)CCc2ccc(O)cc2)ccc1O [Compound 4, dihydroconiferyl dihydro-p-coumarate] | 0.735 ± 0.022
13 | COc1cc(C=O)cc(OC)c1O [Compound 2, syringaldehyde] | 0.336 ± 0.009
14 | CCCCC/C=C\C/C=C\CCCCCCCC(=O)OC [Compound 1, methyl linoleate] | no activity
15 | COc1cc(O)cc(CCc2ccc(O)c(OC)c2)c1 [Compound 5, gigantol] | 0.848 ± 0.029
16 | COc1cc(C=O)ccc1O [Compound 3, vanillin] | 0.716 ± 0.020

Tested on: lipid peroxidation in mouse brain homogenate
Test: Lipid peroxidation inhibition assay (TBARS)
Assay type: biochemical
Details: ferric ion plus ascorbic acid, mean ± SD (n = 3)
Procedure: . Catechin was used as a reference antioxidant. Mouse brain homogenate was employed as the source of lipid which was prepared by homogenizing the brain in the phosphate buffer followed by centrifugation at 10,000 g. Lipid peroxidation was induced by ferric ion plus ascorbic acid. The TBARS produced from the reaction of lipid peroxides with thiobarbituric acid was determined colorimetrically at 532 nm. Results were presented as percentage of lipid peroxidation inhibition in relation to the control. The IC50 values were determined from the graph plotted as percent inhibition of lipid peroxidation against concentration of each compound.

Row | Structure (SMILES) | IC50, inhibition of lipid peroxidation
17 | O.Oc1cc(O)c2c(c1)O[C@H](c1ccc(O)c(O)c1)[C@@H](O)C2 [Catechin, reference compound] | 14.10 ± 0.43 µg/mL
18 | COc1cc(CCCOC(=O)CCc2ccc(O)cc2)ccc1O [Compound 4, dihydroconiferyl dihydro-p-coumarate] | 44.20 ± 1.01 µg/mL
19 | COc1cc(C=O)cc(OC)c1O [Compound 2, syringaldehyde] | 141.60 ± 6.19 µg/mL
20 | CCCCC/C=C\C/C=C\CCCCCCCC(=O)OC [Compound 1, methyl linoleate] | no activity
21 | COc1cc(O)cc(CCc2ccc(O)c(OC)c2)c1 [Compound 5, gigantol] | 32.28 ± 1.10 µg/mL
22 | COc1cc(C=O)ccc1O [Compound 3, vanillin] | 57.02 ± 2.78 µg/mL

Tested on: not listed separately
Test: Hydroxyl radical scavenging assay (deoxyribose degradation method)
Details: mean ± SD (n = 3)
Procedure: The potential of the compounds to scavenge the hydroxyl free radical was assayed by the deoxyribose degradation method as described by Elizabeth and Rao [23]. Catechin was used as a reference antioxidant. Compound at different concentrations was mixed with a reaction mixture containing 2.8 mM 2-deoxy-2-ribose, 20 mM phosphate buffer (pH 7.4), 100 μM FeCl3, 100 μM EDTA, 1.0 mM H2O2, and 100 μM ascorbic acid and incubated at 37°C for 1 hour. This was then followed by the addition of 2.8% trichloro acetic acid (TCA) and 1% TBA. The reaction mixture was heated on a boiling water bath. After cooling, the absorbance was measured at 532 nm against an appropriate blank solution. The result was expressed as percent scavenging of hydroxyl radical in relation to the control. The IC50 values were calculated from the graph plotted as percent scavenging of hydroxyl free radical against concentration of each compound.

Row | Structure (SMILES) | IC50, hydroxyl radical scavenging
23 | O.Oc1cc(O)c2c(c1)O[C@H](c1ccc(O)c(O)c1)[C@@H](O)C2 [Catechin, reference compound] | 9.32 ± 0.39 µg/mL
24 | COc1cc(CCCOC(=O)CCc2ccc(O)cc2)ccc1O [Compound 4, dihydroconiferyl dihydro-p-coumarate] | 15.07 ± 1.20 µg/mL (≈ 45.6 µM)
25 | COc1cc(C=O)cc(OC)c1O [Compound 2, syringaldehyde] | 91.05 ± 3.75 µg/mL (≈ 500 µM)
26 | CCCCC/C=C\C/C=C\CCCCCCCC(=O)OC [Compound 1, methyl linoleate] | no activity
27 | COc1cc(O)cc(CCc2ccc(O)c(OC)c2)c1 [Compound 5, gigantol] | 6.61 ± 0.76 µg/mL (≈ 24.1 µM)
28 | COc1cc(C=O)ccc1O [Compound 3, vanillin] | 21.72 ± 0.87 µg/mL (≈ 143 µM)

Tested on: not listed separately
Test: DPPH radical scavenging assay
Details: mean ± SD (n = 3)
Procedure: The DPPH radical scavenging ability of the compounds was estimated using the method described by Choi et al.. Catechin was used as a standard antioxidant for comparison. Compound at different concentrations was added to a methanolic solution of DPPH (0.135 mM) and vortexed and left for 30 minutes in the dark. The absorbance of the reaction mixture was measured spectrophotometrically at 517 nm. DPPH free radical scavenging ability (%) was calculated by using the following formula:(4) Absorbance of control−Absorbance of sample/Absorbance of control×100.
The result was presented as IC50 value which is the concentration required to cause 50% scavenging. The IC50 value was calculated from the graph plotted as percent scavenging of DPPH free radical against concentration of each compound.

Row | Structure (SMILES) | IC50, DPPH radical scavenging
29 | O.Oc1cc(O)c2c(c1)O[C@H](c1ccc(O)c(O)c1)[C@@H](O)C2 [Catechin, reference compound] | 4.35 ± 0.09 µg/mL
30 | COc1cc(CCCOC(=O)CCc2ccc(O)cc2)ccc1O [Compound 4, dihydroconiferyl dihydro-p-coumarate] | 12.16 ± 0.55 µg/mL (≈ 36.8 µM)
31 | COc1cc(C=O)cc(OC)c1O [Compound 2, syringaldehyde] | 40.64 ± 1.68 µg/mL (≈ 223 µM)
32 | CCCCC/C=C\C/C=C\CCCCCCCC(=O)OC [Compound 1, methyl linoleate] | no activity
33 | COc1cc(O)cc(CCc2ccc(O)c(OC)c2)c1 [Compound 5, gigantol] | 4.16 ± 0.37 µg/mL (≈ 15.2 µM)
34 | COc1cc(C=O)ccc1O [Compound 3, vanillin] | 19.64 ± 0.73 µg/mL (≈ 129 µM)

Target: T1, AChE (Mus musculus, UniProt P21836)
T1 construct: The AChE enzyme was prepared from mouse brain as described earlier; from tissue; host or cells: brain of Swiss albino mice
T1 sequence (P21836 32-614): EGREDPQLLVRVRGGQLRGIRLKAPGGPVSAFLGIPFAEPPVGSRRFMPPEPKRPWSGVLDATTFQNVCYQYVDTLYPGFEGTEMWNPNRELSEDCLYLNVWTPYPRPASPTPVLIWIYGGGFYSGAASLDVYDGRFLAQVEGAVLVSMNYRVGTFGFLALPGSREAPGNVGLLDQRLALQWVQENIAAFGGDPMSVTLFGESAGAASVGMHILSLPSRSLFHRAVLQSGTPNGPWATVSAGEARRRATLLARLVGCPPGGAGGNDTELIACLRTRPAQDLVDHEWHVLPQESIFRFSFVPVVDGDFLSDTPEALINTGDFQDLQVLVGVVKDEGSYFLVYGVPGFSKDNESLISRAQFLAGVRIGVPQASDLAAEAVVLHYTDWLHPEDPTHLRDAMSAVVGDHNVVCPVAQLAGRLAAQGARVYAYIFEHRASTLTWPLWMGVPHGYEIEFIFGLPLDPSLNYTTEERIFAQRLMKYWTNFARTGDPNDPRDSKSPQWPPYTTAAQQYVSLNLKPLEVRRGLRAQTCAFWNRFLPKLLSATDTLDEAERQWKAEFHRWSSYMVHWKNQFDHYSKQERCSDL
Test: biochemical
Details: not given
Procedure: The AChE enzyme was prepared from mouse brain as described earlier. Compound at different concentrations was mixed with AChE solution and incubated at 37°C for 15 min. The rates of hydrolysis by AChE was monitored by spectrophotometer at 405 nm immediately after adding an Ellman's reaction mixture containing 0.5 mM acetylthiocholine and 1 mM 5, 5′-dithio-bis (2-nitro benzoic acid) (DTNB) in a 50 mM phosphate buffer (pH 8.0) to the above reaction mixture. […] The percentage inhibition of AChE activity was calculated using the following formula:(1) Absorbance of control−Absorbance of sample/Absorbance of control×100.
IC50 value could be calculated from the inhibition curve obtained by plotting the percent inhibition values against test concentrations of each compound.
Quality of assay was assessed by using Z' factor as follows:(2) Z′=1−3σc++σc−/μc+−μc−, where σc+ and σc−are the standard deviations of the positive and negative control and μc+ and μc−are the means of the positive and negative control, respectively.

Row | Structure (SMILES) | IC50 [mM]
35 | COc1cc(C=O)cc(OC)c1O [Compound 2, syringaldehyde] | 6.96
36 | COc1cc(C=O)ccc1O [Compound 3, vanillin] | 0.556

Same assay, conditions: assay performance of the compound versus control

Row | Structure (SMILES) | Z-factor of acetylcholinesterase inhibitory activity
37 | COc1cc(CCCOC(=O)CCc2ccc(O)cc2)ccc1O [Compound 4, dihydroconiferyl dihydro-p-coumarate] | 0.87
38 | COc1cc(C=O)cc(OC)c1O [Compound 2, syringaldehyde] | 0.80
39 | COc1cc(O)cc(CCc2ccc(O)c(OC)c2)c1 [Compound 5, gigantol] | 0.80
40 | COc1cc(C=O)ccc1O [Compound 3, vanillin] | 0.91

Same assay, conditions: mouse brain AChE, acetylthiocholine substrate, mean ± SD (n = 3)

Row | Structure (SMILES) | IC50, inhibition of acetylcholinesterase activity
41 | CCCCC/C=C\C/C=C\CCCCCCCC(=O)OC [Compound 1, methyl linoleate] | no activity

Same assay, conditions: mouse brain AChE, acetylthiocholine substrate, mean ± SD (n = 3); read-out: IC50, inhibition of acetylcholinesterase activity (converted)

Row | Structure (SMILES) | IC50 [mM]
42 | COc1cc(CCCOC(=O)CCc2ccc(O)cc2)ccc1O [Compound 4, dihydroconiferyl dihydro-p-coumarate] | 0.358
43 | COc1cc(O)cc(CCc2ccc(O)c(OC)c2)c1 [Compound 5, gigantol] | 2
